{
  "source": "patent US20260014171A1",
  "about": "“COMPOSITION FOR THE USE IN THE TREATMENT OF POLYCYSTIC OVARY SYNDROME” (LO.LI. PHARMA S.R.L., priority 2023, published 2026)",
  "assay_type_in_all_cases": "cell-based",
  "key": {"ki-67 [1]": {"tested_on": "ki-67", "test": "Proliferation (ki67 western blot assay) in co-cultured bovine theca and granulosa cells", "experimental": "(§1) The anti-proliferative activity of Dioscorea villosa, Vitamin D, and α-lactalbumin was investigated (alone or in combination) in cultured bovine theca and granulosa cells (co-culture). To investigate the properties of these natural molecules, the inventors evaluated their effect on cell viability, proliferation, and apoptosis.\n(§2) Bovine theca and granulosa were co-cultured, (DMEM, High glucose 5% FBS, […], 1% Pen/Strep, 1% Amphotericin B, 1% Glutamine) for 7 days. The cells were grown in petri dishes and treated shortly before reaching 80% confluence. […]\n(§3) The results were measured as 2^−ΔΔCt for the mRNA assay. Both for the Real Time PCR and western blot analyses, the data are expressed as fold increases in relation to the housekeeping genes. Proliferation (ki67 western blot assay) and apoptosis (caspase-9 western blot assay) assessed the expression as per the experimental conditions reported above.\n(§4) Co-cultured bovine theca and granulosa cells; grown as described in phase 1. The expression of IGF-1 and IGF-BP1 were analyzed after treatment with Dioscorea villosa. […]\n(§5) The results were measured as […] for the mRNA assay. Both for the Real Time PCR and western blot analyses, the data are expressed as fold increases in relation to the housekeeping genes. […]\n(§6) The results were measured as […] for the mRNA assay. […]"}, "IGF-1 [2]": {"tested_on": "IGF-1", "test": "IGF-1 protein quantification by western blot in co-cultured bovine theca and granulosa cells", "conditions": "Phase 1: FSH (46 h), LH + insulin, then exogenous IGF-1 100 ng/ml 48 h; vs untreated control", "experimental": "as §1, §2\n(§7) The expression of insuline like growth factor IGF-1 and IGF-BP1 insulin like growth factor binding protein 1 were both measured by Real Time PCR and western blot, to investigate the effects of the treatment with the raw materials; namely, Dioscorea villosa, Vitamin D and α-lactalbumin alone or in combination.\nas §3, §4"}, "IGFBP-1 [3]": {"tested_on": "IGFBP-1", "test": "IGFBP-1 gene expression by Real Time PCR in co-cultured bovine theca and granulosa cells", "conditions": "Phase 1: FSH (46 h), LH + insulin, then exogenous IGF-1 100 ng/ml 48 h; vs untreated control", "experimental": "as §1, §2, §7, §3, §4"}, "IGF-1 [4]": {"tested_on": "IGF-1", "test": "IGF-1 gene expression by Real Time PCR in co-cultured bovine theca and granulosa cells", "conditions": "Phase 1: FSH (46 h), LH 1.5 UI/ml + insulin 100 ng/ml 10 min, then exogenous IGF-1 100 ng/ml 48 h; vs untreated control", "experimental": "as §1, §2, §7, §3, §4"}, "caspase-9 [5]": {"tested_on": "caspase-9", "test": "Apoptosis (caspase-9 western blot assay) in co-cultured bovine theca and granulosa cells", "experimental": "as §1, §2, §3, §4, §5, §6"}, "caspase-9 [6]": {"tested_on": "caspase-9", "test": "caspase-9 gene expression (mRNA) in co-cultured bovine theca and granulosa cells", "conditions": "Phase 1: FSH (46 h), LH + insulin, then exogenous IGF-1 100 ng/ml 48 h; vs untreated control", "experimental": "as §1, §2, §3, §4, §5, §6"}, "IGFBP-1 [7]": {"tested_on": "IGFBP-1", "test": "IGFBP-1 protein quantification by western blot in co-cultured bovine theca and granulosa cells", "conditions": "Phase 1: FSH (46 h), LH + insulin, then exogenous IGF-1 100 ng/ml 48 h; vs untreated control", "experimental": "as §1, §2, §7, §3, §4"}, "ki-67 [8]": {"tested_on": "ki-67", "test": "ki-67 gene expression (mRNA) in co-cultured bovine theca and granulosa cells", "conditions": "Phase 1: FSH (46 h), LH + insulin, then exogenous IGF-1 100 ng/ml 48 h; vs untreated control", "experimental": "as §1, §2, §3, §4, §5, §6"}, "[9]": {"conditions": "Phase 1: FSH (46 h), LH + insulin, then exogenous IGF-1 100 ng/ml 48 h, vs untreated control"}, "[10]": {"conditions": "Results text: treatment with IGF-1 (48 h)"}},
  "data": [
    {"substance": "IGF-1: exogenous insulin like growth factor IGF-1, 100 ng/ml for 48 h, used as proliferative stimulus", "values": [
      {"measurement": "quantification of ki-67 protein", "setting": "ki-67 [1]; [9]", "result": "significant increase"},
      {"measurement": "proliferative effect", "setting": "ki-67 [1]; [10]", "result": "strong proliferative effect"},
      {"measurement": "quantification of IGF-1 protein", "setting": "IGF-1 [2]", "result": "significant increase"},
      {"measurement": "gene expression of IGFBP-1 (mRNA)", "setting": "IGFBP-1 [3]", "result": "not significant"},
      {"measurement": "gene expression of IGF-1 (mRNA)", "setting": "IGF-1 [4]", "result": "significant increase"},
      {"measurement": "quantification of caspase-9 protein", "setting": "caspase-9 [5]; [9]", "result": "not significant"},
      {"measurement": "rate of apoptosis observed in the cell culture", "setting": "caspase-9 [5]; [10]", "result": "reduction in the rate of apoptosis"},
      {"measurement": "gene expression of caspase-9 (mRNA)", "setting": "caspase-9 [6]", "result": "not significant"},
      {"measurement": "quantification of IGFBP-1 protein", "setting": "IGFBP-1 [7]", "result": "not significant"},
      {"measurement": "gene expression of ki-67 (mRNA)", "setting": "ki-67 [8]", "result": "significant increase"}
    ]}
  ]
}
